The NIST ThermoML archive (doi:10.1021/je800110r)
Numbers after ± are expanded uncertainties.

Conditions: 293.15 K, Liquid, Vibrating tube method

CCCCCCCCCC [decane]
Conditions	mass density [kg/m3]
22074 kPa	745.5 ± 2
22091 kPa	745.6 ± 2
22110 kPa	745.5 ± 2
22128 kPa	745.6 ± 2
22143 kPa	745.7 ± 2
22164 kPa	745.5 ± 2
22179 kPa	745.6 ± 2
22199 kPa	745.6 ± 2
22217 kPa	745.7 ± 2
22235 kPa	745.7 ± 2
22253 kPa	745.5 ± 2
22275 kPa	745.8 ± 2
22300 kPa	745.7 ± 2
22318 kPa	745.7 ± 2
22336 kPa	745.7 ± 2
22358 kPa	745.8 ± 2
22373 kPa	745.8 ± 2
22397 kPa	745.8 ± 2
22412 kPa	745.8 ± 2
22434 kPa	745.7 ± 2
22452 kPa	745.7 ± 2
22473 kPa	745.8 ± 2
22498 kPa	745.9 ± 2
22523 kPa	745.9 ± 2
22542 kPa	745.8 ± 2
22564 kPa	746 ± 2
22583 kPa	745.9 ± 2
22605 kPa	745.9 ± 2
22624 kPa	745.9 ± 2
22648 kPa	745.8 ± 2
22667 kPa	745.9 ± 2
22689 kPa	746 ± 2
22711 kPa	745.9 ± 2
22727 kPa	746 ± 2
22746 kPa	746 ± 2
22771 kPa	746 ± 2
22787 kPa	746 ± 2
22807 kPa	746 ± 2
22830 kPa	746.1 ± 2
22852 kPa	746.1 ± 2
22866 kPa	746 ± 2
22882 kPa	746.2 ± 2
22899 kPa	746.2 ± 2
22915 kPa	746.2 ± 2
22934 kPa	746.2 ± 2
22948 kPa	746.2 ± 2
22970 kPa	746.2 ± 2
22994 kPa	746.1 ± 2
23011 kPa	746.2 ± 2
23030 kPa	746.2 ± 2
23047 kPa	746.1 ± 2
23069 kPa	746.1 ± 2
23086 kPa	746.1 ± 2
23108 kPa	746.2 ± 2
23127 kPa	746.3 ± 2
23144 kPa	746.2 ± 2
23167 kPa	746.2 ± 2
23186 kPa	746.2 ± 2
23206 kPa	746.4 ± 2
23223 kPa	746.3 ± 2
23246 kPa	746.3 ± 2
23265 kPa	746.4 ± 2
23285 kPa	746.4 ± 2
23308 kPa	746.2 ± 2
23328 kPa	746.4 ± 2
23345 kPa	746.3 ± 2
23362 kPa	746.3 ± 2
23382 kPa	746.3 ± 2
23402 kPa	746.3 ± 2
23416 kPa	746.3 ± 2
23434 kPa	746.3 ± 2
23454 kPa	746.4 ± 2
23472 kPa	746.4 ± 2
23489 kPa	746.5 ± 2
23509 kPa	746.5 ± 2
23529 kPa	746.5 ± 2
23547 kPa	746.5 ± 2
23565 kPa	746.5 ± 2
23582 kPa	746.5 ± 2
23605 kPa	746.6 ± 2
23632 kPa	746.7 ± 2
23647 kPa	746.6 ± 2
23668 kPa	746.5 ± 2
23687 kPa	746.7 ± 2
23704 kPa	746.6 ± 2
23728 kPa	746.7 ± 2
23755 kPa	746.6 ± 2
23773 kPa	746.6 ± 2
23790 kPa	746.7 ± 2
23811 kPa	746.7 ± 2
23826 kPa	746.6 ± 2
23847 kPa	746.7 ± 2
23875 kPa	746.7 ± 2
23896 kPa	746.8 ± 2
23917 kPa	746.8 ± 2
23940 kPa	746.7 ± 2
23964 kPa	746.9 ± 2
23985 kPa	746.9 ± 2
24004 kPa	746.7 ± 2
24022 kPa	747 ± 2
24046 kPa	746.8 ± 2
24065 kPa	746.8 ± 2
24089 kPa	746.8 ± 2
24108 kPa	746.9 ± 2
24126 kPa	746.9 ± 2
24148 kPa	746.9 ± 2
24170 kPa	746.9 ± 2
24194 kPa	746.9 ± 2
24219 kPa	747 ± 2
24237 kPa	747 ± 2
24256 kPa	746.9 ± 2
24284 kPa	747 ± 2
24309 kPa	747 ± 2
24334 kPa	747 ± 2
24356 kPa	747.1 ± 2
24374 kPa	747 ± 2
24393 kPa	747 ± 2
24416 kPa	747 ± 2
24435 kPa	747.1 ± 2
24454 kPa	747.1 ± 2
24479 kPa	747.1 ± 2
24498 kPa	747.1 ± 2
24526 kPa	747.1 ± 2
24545 kPa	747.1 ± 2
24574 kPa	747.2 ± 2
24590 kPa	747.2 ± 2
24613 kPa	747.1 ± 2
24632 kPa	747.2 ± 2
24655 kPa	747.3 ± 2
24678 kPa	747.2 ± 2
24700 kPa	747.2 ± 2
24720 kPa	747.2 ± 2
24739 kPa	747.2 ± 2
24759 kPa	747.4 ± 2
24779 kPa	747.4 ± 2
24808 kPa	747.3 ± 2
24834 kPa	747.2 ± 2
24857 kPa	747.4 ± 2
24883 kPa	747.4 ± 2
24899 kPa	747.3 ± 2
24926 kPa	747.4 ± 2
24943 kPa	747.5 ± 2
24972 kPa	747.3 ± 2
24999 kPa	747.4 ± 2
25019 kPa	747.5 ± 2
25048 kPa	747.5 ± 2
25068 kPa	747.5 ± 2
25092 kPa	747.5 ± 2
25116 kPa	747.5 ± 2
25139 kPa	747.5 ± 2
25163 kPa	747.5 ± 2
25187 kPa	747.6 ± 2
25218 kPa	747.7 ± 2
25238 kPa	747.6 ± 2
25269 kPa	747.5 ± 2
25300 kPa	747.7 ± 2
25320 kPa	747.7 ± 2
25345 kPa	747.6 ± 2
25370 kPa	747.6 ± 2
25391 kPa	747.7 ± 2
25419 kPa	747.6 ± 2
25442 kPa	747.7 ± 2.1
25468 kPa	747.8 ± 2.1
25493 kPa	747.7 ± 2.1
25512 kPa	747.6 ± 2.1
25535 kPa	747.8 ± 2.1
25557 kPa	747.8 ± 2.1
25577 kPa	747.8 ± 2.1
25599 kPa	747.7 ± 2.1
25615 kPa	747.7 ± 2.1
25638 kPa	747.9 ± 2.1
25657 kPa	747.8 ± 2.1
25680 kPa	747.8 ± 2.1
25699 kPa	747.8 ± 2.1
25720 kPa	748 ± 2.1
25746 kPa	747.9 ± 2.1
25766 kPa	747.9 ± 2.1
25788 kPa	747.9 ± 2.1
25808 kPa	747.9 ± 2.1
25835 kPa	748 ± 2.1
25861 kPa	748 ± 2.1
25887 kPa	748 ± 2.1
25907 kPa	748.1 ± 2.1
25933 kPa	747.9 ± 2.1
25959 kPa	748 ± 2.1
25986 kPa	748 ± 2.1
26006 kPa	748.1 ± 2.1
26023 kPa	748 ± 2.1
26040 kPa	748.1 ± 2.1
26070 kPa	748.1 ± 2.1
26093 kPa	748.1 ± 2.1
26117 kPa	748.1 ± 2.1
26145 kPa	748.1 ± 2.1
26165 kPa	748.2 ± 2.1
26192 kPa	748.1 ± 2.1
26216 kPa	748.1 ± 2.1
26243 kPa	748.1 ± 2.1
26263 kPa	748.4 ± 2.1
26291 kPa	748.2 ± 2.1
26315 kPa	748.2 ± 2.1
26335 kPa	748.3 ± 2.1
26352 kPa	748.3 ± 2.1
26370 kPa	748.3 ± 2.1
26390 kPa	748.4 ± 2.1
26408 kPa	748.3 ± 2.1
26432 kPa	748.3 ± 2.1
26453 kPa	748.3 ± 2.1
26483 kPa	748.4 ± 2.1
26516 kPa	748.4 ± 2.1
26537 kPa	748.4 ± 2.1
26568 kPa	748.4 ± 2.1
26586 kPa	748.5 ± 2.1
26607 kPa	748.4 ± 2.1
26631 kPa	748.5 ± 2.1
26652 kPa	748.5 ± 2.1
26677 kPa	748.4 ± 2.1
26694 kPa	748.5 ± 2.1
26719 kPa	748.4 ± 2.1
26741 kPa	748.5 ± 2.1
26769 kPa	748.5 ± 2.1
26795 kPa	748.5 ± 2.1
26816 kPa	748.5 ± 2.1
26841 kPa	748.6 ± 2.1
26863 kPa	748.5 ± 2.1
26885 kPa	748.6 ± 2.1
26913 kPa	748.7 ± 2.1
26935 kPa	748.7 ± 2.1
26964 kPa	748.7 ± 2.1
26989 kPa	748.6 ± 2.1
27011 kPa	748.7 ± 2.1
27036 kPa	748.7 ± 2.1
27054 kPa	748.6 ± 2.1
27077 kPa	748.7 ± 2.1
27103 kPa	748.7 ± 2.1
27128 kPa	748.8 ± 2.1
27154 kPa	748.7 ± 2.1
27173 kPa	748.7 ± 2.1
27202 kPa	748.8 ± 2.1
27232 kPa	748.8 ± 2.1
27257 kPa	748.8 ± 2.1
27280 kPa	748.8 ± 2.1
27309 kPa	748.8 ± 2.1
27328 kPa	748.8 ± 2.1
27362 kPa	749 ± 2.1
27385 kPa	748.9 ± 2.1
27419 kPa	748.9 ± 2.1
27438 kPa	749 ± 2.1
27475 kPa	749 ± 2.1
27501 kPa	749 ± 2.1
27523 kPa	749 ± 2.1
27557 kPa	749.1 ± 2.1
27579 kPa	749.1 ± 2.1
27609 kPa	749.1 ± 2.1
27632 kPa	749.1 ± 2.1
27667 kPa	749.1 ± 2.1
27690 kPa	749.2 ± 2.1
27713 kPa	749.1 ± 2.1
27748 kPa	749.3 ± 2.1
27770 kPa	749.1 ± 2.1
27805 kPa	749.2 ± 2.1
27827 kPa	749.1 ± 2.1
27850 kPa	749.2 ± 2.1
27877 kPa	749.2 ± 2.1
27896 kPa	749.1 ± 2.1
27924 kPa	749.3 ± 2.1
27959 kPa	749.2 ± 2.1
27983 kPa	749.3 ± 2.1
28006 kPa	749.4 ± 2.1
28033 kPa	749.3 ± 2.1
28056 kPa	749.4 ± 2.1
28076 kPa	749.4 ± 2.1
28099 kPa	749.3 ± 2.1
28123 kPa	749.3 ± 2.1
